Measured values as given in publication PMC7663272, “Discovery of Tricyclic Pyranochromenone as Novel Bruton’s Tyrosine Kinase Inhibitors with In Vivo Antirheumatic Activity” (International Journal of Molecular Sciences, 2020).

How the values were obtained:
BMX = molecular target: T1, BMX (Homo sapiens, UniProt P51813); assay: HotSpot kinase enzymatic assay, BMX; format: biochemical
T1 construct: purchased Reaction Biology Corporation
T1 sequence (P51813 1-675): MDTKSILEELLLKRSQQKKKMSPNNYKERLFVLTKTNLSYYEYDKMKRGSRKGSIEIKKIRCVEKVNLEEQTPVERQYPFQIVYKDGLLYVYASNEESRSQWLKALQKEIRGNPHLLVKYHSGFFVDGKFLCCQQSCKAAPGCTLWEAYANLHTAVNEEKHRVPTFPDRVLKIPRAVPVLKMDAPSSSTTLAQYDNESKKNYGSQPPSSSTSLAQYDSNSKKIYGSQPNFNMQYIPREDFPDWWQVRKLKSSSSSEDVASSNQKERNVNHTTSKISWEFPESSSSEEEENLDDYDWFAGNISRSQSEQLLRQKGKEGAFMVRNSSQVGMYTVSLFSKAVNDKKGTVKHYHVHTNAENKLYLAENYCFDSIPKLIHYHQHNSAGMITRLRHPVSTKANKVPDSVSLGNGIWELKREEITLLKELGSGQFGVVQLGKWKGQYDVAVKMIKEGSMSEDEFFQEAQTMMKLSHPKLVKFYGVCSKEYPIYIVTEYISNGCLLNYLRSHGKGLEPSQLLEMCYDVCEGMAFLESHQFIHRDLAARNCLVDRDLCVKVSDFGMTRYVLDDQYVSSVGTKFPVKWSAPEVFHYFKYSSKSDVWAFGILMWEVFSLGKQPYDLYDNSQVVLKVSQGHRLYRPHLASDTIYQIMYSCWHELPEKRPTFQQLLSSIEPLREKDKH
Method: Therefore, efforts have focused on developing new compounds with good selectivity profiles. […] Compound 8 was selective against BTK. The biochemical activities of compound 8 differed among TEC family kinases. […] The inhibitory potential of compound 8 differed between members of the EGFR family. […] The inhibitory activity of compound 8 against JAK3 was also low.
Kinase enzymatic assays for BTK, BMX, TXK, TEC, ITK, EGFR, ERBB2, ERBB4, and JAK3 were performed at Reaction Biology Corporation (www.reactionbiology.com, Malvern, PA, USA) using the HotSpot assay platform. Briefly, specific kinase/substrate pairs and the required cofactors were prepared in a reaction buffer comprising 20 mM HEPES (pH 7.5), 10 mM MgCl2, 1 mM EGTA, 0.02% Brij35, 0.02 mg/mL BSA, 0.1 mM Na3VO4, 2 mM DTT, and 1% DMSO. The compounds were added to the reaction mixture and allowed to incubate. Approximately 20 min later, a mixture of ATP (Sigma-Aldrich, St. Louis, MO, USA) and ^33P ATP (PerkinElmer, Waltham, MA, USA) was added to the reaction mixture at a final concentration of 10 μM. The reactions were performed at room temperature for 120 min; subsequently, the reactions were spotted onto P81 ion exchange filter papers (Whatman Inc., Maidstone, UK). Any unbound phosphate was removed by thoroughly washing the filter papers with 0.75% phosphoric acid. […]

CYP2C19 = molecular target: T2, CYP2C19 (Homo sapiens, UniProt P33261); assay: P450-Glo CYP inhibition assay, CYP2C19; format: in vitro ADME
T2 construct: purchased Promega V9880
T2 sequence (P33261 whole entry): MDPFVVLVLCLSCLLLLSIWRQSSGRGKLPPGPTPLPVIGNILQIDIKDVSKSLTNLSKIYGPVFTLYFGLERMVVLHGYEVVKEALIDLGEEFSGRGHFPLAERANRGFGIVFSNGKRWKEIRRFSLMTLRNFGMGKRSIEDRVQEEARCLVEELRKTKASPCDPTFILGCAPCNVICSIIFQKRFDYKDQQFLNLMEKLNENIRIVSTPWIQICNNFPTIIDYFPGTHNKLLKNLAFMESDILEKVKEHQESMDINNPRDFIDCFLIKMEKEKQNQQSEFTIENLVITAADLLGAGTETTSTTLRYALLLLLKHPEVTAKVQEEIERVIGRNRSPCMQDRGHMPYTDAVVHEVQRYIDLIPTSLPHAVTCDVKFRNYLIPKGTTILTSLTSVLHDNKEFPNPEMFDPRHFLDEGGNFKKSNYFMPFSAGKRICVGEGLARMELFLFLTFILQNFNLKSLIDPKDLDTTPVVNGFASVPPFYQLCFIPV
Method: The potential for CYP450 inhibition (CYP1A2, 2C9, 2C19, 2D6, and […]) was assessed using Promega P450-Glo^TM CYP450 assay systems. Luciferin-ME served as the substrate for CYP1A2, and the inhibitor α-naphthoflavone was used as a positive control. Luciferin-H was used as the substrate for CYP2C9, and the inhibitor sulfaphenazole was used as a positive control. Luciferin-H EGE was selected as the substrate for CYP2C19, whereas the inhibitor amitriptyline served as a positive control. Luciferin-ME EGE was used as the substrate for CYP2D6, whereas the inhibitor quinidine served as a positive control. Luciferin-BE was used as the substrate for CYP3A4, whereas the inhibitor ketoconazole was used as a positive control. The assays were performed using the excitation and emission wavelengths recommended by the manufacturer. Briefly, a CYP enzyme and a P450-Glo™ substrate were combined in potassium phosphate (0.1 M KPO4) buffer, with or without a test compound of interest, and […]. The reaction was initiated by adding two volumes of 2 times concentrated NADPH regeneration system. […] Luminescence was subsequently measured using a Tecan Infinite M1000 PRO microplate reader (Tecan Group Ltd., Switzerland). The percent inhibition was calculated relative to that of the positive control at a fixed concentration. […]

For `C=CC(=O)O[C@H]1Cc2cc3ccc(=O)oc3cc2OC1(C)C` [Compound 8, (7S)-(+)-Acrylic acid, 8,8-dimethyl-2-oxo-6,7-dihydro-2H,8H-pyrano [3,2-g]chromen-7-yl ester], the “inhibitory activity against BMX (in words)” value (BMX) was “strong inhibitory activity”, the inhibition at 10 µM (BMX; 10 µM, mean of two experiments) was 95.4% and the “CYP2C19 inhibition (in words)” value (CYP2C19) was “moderately inhibited”. For the same molecule, the “CYP inhibition 2C19” value (CYP2C19; % inhibition of human CYP isozymes at 10 μM) was 48.2%.
